In US8461125B2, “Compositions and methods to treat asthma” (The Children's Hospital of Philadelphia, priority 2008, dated 2013):

Experiments:
[1] = system: rabbit ASM tissues; assay: Constrictor and relaxation responsiveness in isolated rabbit ASM tissues (organ bath, isometric tension); conditions: rabbit ASM tissues exposed 24 hr to IgE immune complexes, pretreatment 10 μM
Source text: The following materials and methods are provided to facilitate practice of the present invention: • Materials: All chemicals were purchased from Sigma-Aldrich unless otherwise indicated. The human ASM cells were obtained from BioWhittaker, Inc. • Animals: Adult New Zealand White rabbits were used in this study, which was approved by the Biosafety and Animal Research Committee of the Joseph Stokes Research Institute at Children's Hospital of Philadelphia. The animals had no signs of respiratory disease for several weeks before the study, and their care and use were in accordance with the “Guide for the Care and Use of Laboratory Animals” prepared by the Institute of Laboratory Animal Resources, National Research Council. • Immunization protocol: Rabbits were actively immunized by an intra-peritoneal injection of 1 ml of an emulsion containing ovalbumin (OVA; 2.5 mg in PBS) mixed in equal part with adjuvant, administered each week for 3 weeks and, thereafter, every alternate week for a one month period. Non-immunized rabbits receiving injections with PBS alone served as controls. Thereafter, the rabbits were challenged by airway administration of a 3% solution of OVA. […]

[2] = system: cAMP PDE4 activity; assay: cAMP PDE activity in isolated rabbit ASM tissues after pro-asthmatic sensitization; conditions: FIG. 7B; rabbit ASM tissues sensitized 24 hr with IgE immune complexes
[3] = system: CD23a mRNA; assay: siRNA-mediated knockdown of CD23a mRNA expression in cultured human ASM cells (RT-PCR); assay type: cell-based; conditions: 100 nM each siRNA duplex; for CD23a mRNA expression (constitutive): FIG. 2, human ASM cells, control conditions, Oligofectamine-mediated transfection; for CD23a mRNA expression in IL-13-treated ASM cells / CD23a mRNA expression in vehicle-exposed ASM cells: FIG. 3, Oligofectamine transfection; for CD23a mRNA expression in IL-13-treated ASM cells: human ASM cells exposed 12 hr to IL-13 (50 ng/ml); for CD23a mRNA expression in vehicle-exposed ASM cells: human ASM cells exposed 12 hr to vehicle
Source text: The following materials and methods are provided to facilitate practice of the present invention: • Materials: All chemicals were purchased from Sigma-Aldrich unless otherwise indicated. The human ASM cells were obtained from BioWhittaker, Inc. • Animals: Adult New Zealand White rabbits were used in this study, which was approved by the Biosafety and Animal Research Committee of the Joseph Stokes Research Institute at Children's Hospital of Philadelphia. The animals had no signs of respiratory disease for several weeks before the study, and their care and use were in accordance with the “Guide for the Care and Use of Laboratory Animals” prepared by the Institute of Laboratory Animal Resources, National Research Council. • Immunization protocol: Rabbits were actively immunized by an intra-peritoneal injection of 1 ml of an emulsion containing ovalbumin (OVA; 2.5 mg in PBS) mixed in equal part with adjuvant, administered each week for 3 weeks and, thereafter, every alternate week for a one month period. Non-immunized rabbits receiving injections with PBS alone served as controls. Thereafter, the rabbits were challenged by airway administration of a 3% solution of OVA. […] Approximately 40 ml of blood was then drawn via an ear vein from each of the immunized and control rabbits for preparation of asthmatic and non-asthmatic serum samples to be used for subsequent passive sensitization of ASM tissue segments isolated from naïve rabbits, as described below. • siRNA-mediated knockdown of CD23 in cultured ASM cells: Human ASM cells were grown in SmBm media supplemented with 10% FBS (BioWhittaker) and maintained throughout in a humidified incubator containing 5% CO2 in air at 37° C. The experimental protocols involved seeding the cells into 6-well plates and, at ˜40% confluency, the medium was replaced with the reduced serum-containing medium, Opti-MEM (Invitrogen). Separate preparations of cells were then transfected twice during a 24-hr interval with each of four different siRNA duplexes targeted against human CD23, using Oligofectamine (Invitrogen) as the transfection agent. The siRNA preparations were purchased from Applied Biosystems and comprised the following nucleotide sequences:
Additionally, cell preparations were also transfected with either a pool of these CD23-directed siRNA duplexes, a non-targeted negative control (scrambled) siRNA duplex, or a negative control duplex labeled with the […], Cy™3, to visualize siRNA transfection efficiency. The siRNAs were applied to each well at a final concentration of 100 nM for each siRNA duplex. After 3 days, the cells were exposed for 12 hr to either vehicle alone or the pro-asthmatic cytokine, IL-13 (50 ng/ml), which is known to upregulate CD23 expression in human monocytes. The cells were subsequently examined for induced changes in mRNA expression of CD23a. • Detection of CD23 mRNA transcripts: Total RNA was extracted from the cultured ASM cells using the TRIzol method (Invitrogen), and cDNAs were isolated by RT-PCR using the SuperScript First Strand Synthesis System kit from Invitrogen, with the following oligonucleotide primer sets (Integrated DNA Technologies): for CD23a, (SEQ ID NO: 11) 5′-[…]-3′ (forward) and (SEQ ID NO: 12) 5′-[…]-3′ (reverse); and for β-actin, (SEQ ID NO: 13) 5′-[…]-3′ (forward) and (SEQ ID NO: 14) 5′-[…]-3′ (reverse). The reaction volume was 20 μl and cycling conditions used were 35 cycles of 30 sec denaturation at 95° C., followed by 30 sec annealing at 60° C. and elongation at 72° C. for 30 sec. Ex-Tag (Takara Biotechnology) was used as DNA polymerase. • Pharmacodynamic studies of constrictor and relaxation responsiveness in rabbit ASM tissues: Following initial sedation and subsequent general anesthesia with intramuscular injections of xylazine (10 mg/kg) and ketamine (50 mg/kg), respectively, rabbits were sacrificed with an intravenously administered overdose of sodium pentobarbital (100 mg/kg). […]

Molecule	Induced pro-asthmatic change in constrictor responsiveness to ACh ([1]; FIG. 5A)	Induced pro-asthmatic change in relaxation responsiveness to isoproterenol ([1]; FIG. 5B)	Induced upregulation of cAMP PDE4 activity [2]	CD23a mRNA expression (constitutive) [3]	CD23a mRNA expression in IL-13-treated ASM cells [3]	CD23a mRNA expression in vehicle-exposed ASM cells [3]	CD23a mRNA expression (constitutive) ([3]; listed as 106645)	CD23a mRNA expression (constitutive) ([3]; listed as 111060)
COc1ccc(C2CNC(=O)C2)cc1OC1CCCC1 (centres unmarked) [rolipram]	prevented	prevented	inhibitory effect	–	–	–	–	–
#106644: siRNA duplex against human CD23 (Applied Biosystems): sense 5′-GGAGGUGACAAAGCUAAGGtt-3′, antisense 5′-CCUUAGCUUUGUCACCUCCtc-3′ (sense GGAGGUGACAAAGCUAAGGTT; antisense CCUUAGCUUUGUCACCUCCTC; chemistry not given here)	–	–	–	no effect	no effect	no effect	–	–
#106645: siRNA duplex against human CD23 (Applied Biosystems): sense 5′-GGUGACAAAGCUAAGGAUGtt-3′, antisense 5′-CAUCCUUAGCUUUGUCACCtc-3′ (sense GGUGACAAAGCUAAGGAUGTT; antisense CAUCCUUAGCUUUGUCACCTC; chemistry not given here)	–	–	–	distinctly inhibited	markedly inhibited	markedly inhibited	marked inhibition	–
#111060: siRNA duplex against human CD23 (Applied Biosystems): sense 5′-GGAAUUGAACGAGAGGAACtt-3′, antisense 5′-GUUCCUCUCGUUCAAUUCCtg-3′ (sense GGAAUUGAACGAGAGGAACTT; antisense GUUCCUCUCGUUCAAUUCCTG; chemistry not given here)	–	–	–	distinctly inhibited	markedly inhibited	markedly inhibited	–	marked inhibition
#111062: siRNA duplex against human CD23 (Applied Biosystems): sense 5′-CGAAGCUUCAGAUUUGCUGtt-3′, antisense 5′-CAGCAAAUCUGAAGCUUCGtt-3′ (sense CGAAGCUUCAGAUUUGCUGTT; antisense CAGCAAAUCUGAAGCUUCGTT; chemistry not given here)	–	–	–	no effect	no effect	no effect	–	–
